From patent publication US10414811B2, “Protease-resistant lipidated GLP-1 analogs” (MEDIMMUNE LIMITED, priority 2015, dated 2019) come the findings set out here.

What all share (type): cell-based
The target of experiment [1] is T1, human glucagon receptor (GCGR) (Homo sapiens, UniProt P47871).
T1 construct: expressed in transfected cells
In words: cAMP assay, human GCGR cells. A digest of the protocol:
(§1)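 Peptide-stimulated cAMP measured by two-step HTRF after a 30 min room-temperature incubation with receptor-expressing cells (hGLP-1R, hGIPR at 1×10^5 cells/ml; hGCGR at 2×10^5 cells/ml). Duplicate dilutions; EC50 from 4-parameter logistic fit of % Delta F.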
A general note: cAMP levels reflect the balance of adenylyl cyclase and phosphodiesterase activity.

Experiment [2] deals with T2, human glucose-dependent insulinotropic peptide receptor (GIPR) (Homo sapiens, UniProt P48546).
T2 construct: expressed in transfected cells
T2 sequence (P48546 22-466): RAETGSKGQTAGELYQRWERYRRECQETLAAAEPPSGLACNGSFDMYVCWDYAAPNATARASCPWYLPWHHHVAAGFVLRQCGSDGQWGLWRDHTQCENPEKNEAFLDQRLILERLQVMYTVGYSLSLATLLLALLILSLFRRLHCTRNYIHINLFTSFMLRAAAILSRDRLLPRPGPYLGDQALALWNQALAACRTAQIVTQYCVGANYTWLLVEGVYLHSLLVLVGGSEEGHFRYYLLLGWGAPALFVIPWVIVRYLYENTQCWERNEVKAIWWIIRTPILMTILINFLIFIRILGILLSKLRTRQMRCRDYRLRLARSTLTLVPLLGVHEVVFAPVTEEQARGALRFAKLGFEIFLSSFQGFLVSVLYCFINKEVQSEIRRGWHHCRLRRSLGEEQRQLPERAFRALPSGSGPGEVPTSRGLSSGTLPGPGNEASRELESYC
In words: cAMP assay, human GIPR cells. The essentials:
as §1

For experiment [3], the target named is T3, human GLP-1 receptor (GLP-1R) (Homo sapiens, UniProt P43220).
T3 construct: expressed in transfected cells
T3 sequence (P43220 24-463): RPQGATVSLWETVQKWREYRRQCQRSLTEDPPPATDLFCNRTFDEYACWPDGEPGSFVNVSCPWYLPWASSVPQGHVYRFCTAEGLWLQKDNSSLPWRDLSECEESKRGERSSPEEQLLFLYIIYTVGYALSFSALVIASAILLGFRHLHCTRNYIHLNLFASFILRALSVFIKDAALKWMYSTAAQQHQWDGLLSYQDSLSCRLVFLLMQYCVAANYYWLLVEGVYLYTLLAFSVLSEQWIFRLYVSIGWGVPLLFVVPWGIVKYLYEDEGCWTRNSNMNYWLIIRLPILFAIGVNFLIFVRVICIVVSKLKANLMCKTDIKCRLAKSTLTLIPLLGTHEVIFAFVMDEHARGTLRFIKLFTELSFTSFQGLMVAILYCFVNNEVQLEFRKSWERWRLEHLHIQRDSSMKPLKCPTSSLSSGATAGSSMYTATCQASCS
In words: cAMP assay, human GLP-1R cells. A digest of the protocol: as §1

The mark [4] stands for this setting: cAMP assay, first determination (n1), read-out: Primary assay EC50 Gluc-R (n1).
Where [5] appears, read: cAMP assay, second determination (n2), read-out: Primary assay EC50 Gluc-R (n2).
Where [6] appears, read: cAMP assay, first determination (n1), read-out: Primary assay EC50 GIP-R (n1).
[7] abbreviates: cAMP assay, second determination (n2), read-out: Primary assay EC50 GIP-R (n2).
Where [8] appears, read: cAMP assay, first determination (n1), read-out: Primary assay EC50 GLP-1R n1.
[9] abbreviates: cAMP assay, second determination (n2), read-out: Primary assay EC50 GLP-1R n2.
Where [10] appears, read: mean of n1 and n2, read-out: Mean pM GLP-1R.

Where two headings read alike, the source gives them in different places. Numbered stars: 1 amine (or outer) side, 2 acyl side, 3 side chain; on linkers, the order of the positions; unused ones are H or OH. Square brackets hold non-standard residues; d marks the D form. Side chains are listed from the residue outwards. Peptide text beside a SMILES is read from it. * marks the point of attachment. γGlu = O=C(O)[C@H](CCC(=O)[*:2])N[*:1]; Palmitoyl = CCCCCCCCCCCCCCCC(=O)*; αMeF = C[C@](N)(Cc1ccccc1)C(=O)O; αMeK = C[C@](N)(CCCCN)C(=O)O; Lauroyl = CCCCCCCCCCCC(=O)*; αMeS = C[C@](N)(CO)C(=O)O; AEEA = NCCOCCOCC(=O)O; Aib = CC(C)(N)C(=O)O

T1 sequence (P47871 26-477): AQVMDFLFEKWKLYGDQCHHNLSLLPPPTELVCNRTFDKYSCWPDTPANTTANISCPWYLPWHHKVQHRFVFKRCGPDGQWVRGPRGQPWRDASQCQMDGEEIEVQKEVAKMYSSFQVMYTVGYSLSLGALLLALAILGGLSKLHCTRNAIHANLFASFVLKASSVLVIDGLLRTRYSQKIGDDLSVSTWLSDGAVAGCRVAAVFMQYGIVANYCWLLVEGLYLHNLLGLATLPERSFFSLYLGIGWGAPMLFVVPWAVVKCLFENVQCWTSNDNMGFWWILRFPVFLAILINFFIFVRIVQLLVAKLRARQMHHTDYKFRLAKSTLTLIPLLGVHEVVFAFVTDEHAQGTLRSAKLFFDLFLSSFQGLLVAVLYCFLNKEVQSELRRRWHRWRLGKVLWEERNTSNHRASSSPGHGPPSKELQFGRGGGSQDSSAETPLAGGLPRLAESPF

For the compound `CCCCCCCCCCCCCCCCCC(=O)NCCCCCC(=O)NCCCC[C@H](NC(=O)[C@H](C)NC(=O)[C@H](C)NC(=O)[C@H](CCC(=O)O)NC(=O)CNC(=O)[C@H](CCC(=O)O)NC(=O)[C@H](CC(C)C)NC(=O)[C@](C)(Cc1ccccc1)NC(=O)[C@H](CO)NC(=O)[C@](C)(CO)NC(=O)[C@@H](NC(=O)[C@H](CC(=O)O)NC(=O)[C@H](CO)NC(=O)[C@@H](NC(=O)[C@](C)(Cc1ccccc1)NC(=O)[C@H](CO)NC(=O)CNC(=O)[C@H](CCC(=O)O)NC(=O)C(C)(C)NC(=O)[C@@H](N)Cc1c[nH]cn1)[C@@H](C)O)C(C)C)C(=O)N[C@@H](CCC(=O)O)C(=O)N[C@@](C)(Cc1ccccc1)C(=O)N[C@H](C(=O)N[C@@H](C)C(=O)N[C@@](C)(Cc1ccccc1)C(=O)N[C@H](C(=O)N[C@H](C(=O)N[C@@](C)(CCCCN)C(=O)NCC(=O)NCC(N)=O)C(C)C)C(C)C)[C@@H](C)CC` [compound 149], the EC50 was not below 28000 pM in experiment [1] (setting [4]); not below 28000 pM in experiment [1] (setting [5]); not below 28000 pM in experiment [2] (setting [6]); not below 28000 pM in experiment [2] (setting [7]); 81 pM in experiment [3] (setting [8]); 51 pM in experiment [3] (setting [9]). For the same compound, in experiment [3] (setting [10]), the EC50 was determined as 66.2 pM.

Consider `CC[C@H](C)[C@H](NC(=O)[C@](C)(Cc1ccccc1)NC(=O)[C@H](CCC(=O)O)NC(=O)[C@](C)(CCCCN)NC(=O)[C@H](C)NC(=O)[C@H](C)NC(=O)[C@H](CCC(=O)O)NC(=O)CNC(=O)[C@H](CCC(=O)O)NC(=O)[C@H](CC(C)C)NC(=O)[C@](C)(Cc1ccccc1)NC(=O)[C@H](CO)NC(=O)[C@](C)(CO)NC(=O)[C@@H](NC(=O)[C@H](CC(=O)O)NC(=O)[C@H](C)NC(=O)[C@@H](NC(=O)[C@](C)(Cc1ccccc1)NC(=O)[C@H](CO)NC(=O)CNC(=O)[C@H](CCC(=O)O)NC(=O)C(C)(C)NC(=O)[C@@H](N)Cc1c[nH]cn1)[C@@H](C)O)C(C)C)C(=O)N[C@@H](C)C(=O)N[C@@](C)(Cc1ccccc1)C(=O)N[C@H](C(=O)N[C@H](C(=O)N[C@@](C)(CCCCN)C(=O)NCC(=O)NCC(N)=O)C(C)C)C(C)C` [compound 26] (H-H[Aib]EGS[αMeF]TADV[αMeS]S[αMeF]LEGEAA[αMeK]E[αMeF]IA[αMeF]VV[αMeK]GG-NH2), for which the EC50 in experiment [1] (setting [4]) is not below 100000 pM; in experiment [1] (setting [5]), 30000 pM; in experiment [2] (setting [6]), not below 100000 pM; in experiment [2] (setting [7]), not below 100000 pM; in experiment [3] (setting [8]) it was 99 pM; in experiment [3] (setting [9]) it was 150 pM. In addition, in experiment [3] (setting [10]), the EC50 was determined as 123 pM.

For the compound `CCCCCCCCCCCC(=O)N[C@@H](CCC(=O)N[C@@H](CCC(=O)NCCCC[C@H](NC(=O)[C@@H](NC(=O)[C@@H](NC(=O)[C@](C)(Cc1ccccc1)NC(=O)[C@H](C)NC(=O)[C@@H](NC(=O)[C@](C)(Cc1ccccc1)NC(=O)[C@H](CCC(=O)O)NC(=O)[C@](C)(CCCCN)NC(=O)[C@H](C)NC(=O)[C@H](C)NC(=O)[C@H](CCC(=O)O)NC(=O)CNC(=O)[C@H](CCC(=O)O)NC(=O)[C@H](CC(C)C)NC(=O)[C@](C)(Cc1ccccc1)NC(=O)[C@H](CO)NC(=O)[C@](C)(CO)NC(=O)[C@@H](NC(=O)[C@H](CC(=O)O)NC(=O)[C@H](CO)NC(=O)[C@@H](NC(=O)[C@](C)(Cc1ccccc1)NC(=O)[C@H](CO)NC(=O)CNC(=O)[C@H](CCC(=O)O)NC(=O)C(C)(C)NC(=O)[C@@H](N)Cc1c[nH]cn1)[C@@H](C)O)C(C)C)[C@@H](C)CC)C(C)C)C(C)C)C(=O)NCC(=O)NCC(N)=O)C(=O)O)C(=O)O` [compound 165], the EC50 in experiment [1] (setting [4]) was not below 27000 pM; in experiment [1] (setting [5]), not below 27000 pM; in experiment [2] (setting [6]), not below 27000 pM; in experiment [2] (setting [7]), not below 27000 pM; in experiment [3] (setting [8]) it was 14 pM; in experiment [3] (setting [9]) it was 6 pM. Moreover, in experiment [3] (setting [10]), the EC50 came to 10.2 pM.

On to `CCCCCCCCCCCC(=O)N[C@@H](CCC(=O)NCCOCCOCC(=O)NCCOCCOCC(=O)NCCCC[C@H](NC(=O)[C@H](CCC(=O)O)NC(=O)CNC(=O)[C@H](CCC(=O)O)NC(=O)[C@H](CCCCNC(=O)COCCOCCNC(=O)COCCOCCNC(=O)CC[C@H](NC(=O)CCCCCCCCCCC)C(=O)O)NC(=O)[C@H](Cc1ccc(O)cc1)NC(=O)[C@H](CO)NC(=O)[C@](C)(CO)NC(=O)[C@@H](NC(=O)[C@H](CC(=O)O)NC(=O)[C@H](CO)NC(=O)[C@@H](NC(=O)[C@](C)(Cc1ccccc1)NC(=O)[C@H](CO)NC(=O)CNC(=O)[C@H](CCC(=O)O)NC(=O)C(C)(C)NC(=O)[C@@H](N)Cc1c[nH]cn1)[C@@H](C)O)C(C)C)C(=O)N[C@@H](C)C(=O)N[C@@](C)(CCCCN)C(=O)N[C@@H](CCC(=O)O)C(=O)N[C@@H](Cc1ccccc1)C(=O)N[C@H](C(=O)N[C@@H](CCCCNC(=O)COCCOCCNC(=O)COCCOCCNC(=O)CC[C@H](NC(=O)CCCCCCCCCCC)C(=O)O)C(=O)N[C@@H](Cc1ccccc1)C(=O)N[C@H](C(=O)N[C@H](C(=O)N[C@@H](CCC(=O)O)C(=O)NCC(=O)NCC(N)=O)C(C)C)C(C)C)[C@@H](C)CC)C(=O)O` [compound 453] (H-H[Aib]EGS[αMeF]TSDV[αMeS]SYK([AEEA-AEEA-γGlu-Lauroyl])EGEK([AEEA-AEEA-γGlu-Lauroyl])A[αMeK]EFIK([AEEA-AEEA-γGlu-Lauroyl])FVVEGG-NH2), for which the EC50 was 19500 pM in experiment [1] (tris-lipidated peptides, second replicate, read-out: Primary assay EC50 Gluc-R (n2)); 19500 pM in experiment [2] (tris-lipidated peptides, first replicate, read-out: Primary assay EC50 GIP-R (n1)); 114 pM in experiment [3] (tris-lipidated peptides, mean of n1 and n2, read-out: Primary assay EC50 Mean pM GLP-1R); 62.9 pM in experiment [3] (tris-lipidated peptides, replicate n1, read-out: Primary assay EC50 GLP-1R n1); 165 pM in experiment [3] (tris-lipidated peptides, replicate n2, read-out: Primary assay EC50 GLP-1R n2).

For `CC[C@H](C)[C@H](NC(=O)[C@](C)(Cc1ccccc1)NC(=O)[C@H](CCC(=O)O)NC(=O)[C@H](CCCCNC(=O)COCCOCCNC(=O)COCCOCCNC(=O)CCCCCCCCCCCOc1ccc(C(=O)O)cc1)NC(=O)[C@H](C)NC(=O)[C@H](C)NC(=O)[C@H](CCC(=O)O)NC(=O)CNC(=O)[C@H](CCC(=O)O)NC(=O)[C@H](CC(C)C)NC(=O)[C@](C)(Cc1ccccc1)NC(=O)[C@H](CO)NC(=O)[C@](C)(CO)NC(=O)[C@@H](NC(=O)[C@H](CC(=O)O)NC(=O)[C@H](CO)NC(=O)[C@@H](NC(=O)[C@](C)(Cc1ccccc1)NC(=O)[C@H](CO)NC(=O)CNC(=O)[C@H](CCC(=O)O)NC(=O)C(C)(C)NC(=O)[C@@H](N)Cc1c[nH]cn1)[C@@H](C)O)C(C)C)C(=O)N[C@@H](C)C(=O)N[C@@](C)(Cc1ccccc1)C(=O)N[C@H](C(=O)N[C@H](C(=O)N[C@@](C)(CCCCN)C(=O)NCC(=O)NCC(N)=O)C(C)C)C(C)C` [compound 144], the EC50 in experiment [1] (Primary assay EC50 Gluc-R (n1), cAMP assay, first determination (n1)) was not below 26000 pM; in experiment [1] (read-out: Primary assay EC50 Gluc-R (n2), cAMP assay, second determination (n2)), not below 26000 pM; in experiment [2] (Primary assay EC50 GIP-R (n1), cAMP assay, first determination (n1)) it was not below 26000 pM; in experiment [2] (read-out: Primary assay EC50 GIP-R (n2), cAMP assay, second determination (n2)), not below 26000 pM; in experiment [3] (setting [8]), 16 pM; in experiment [3] (setting [9]) it was 9.6 pM. Moreover, the EC50 in experiment [3] (setting [10]) amounted to 12.6 pM.

`CCCCCCCCCCCCCCCC(=O)N[C@@H](CCC(=O)NCCCC[C@H](NC(=O)C(C)(C)NC(=O)[C@@H](N)Cc1c[nH]cn1)C(=O)NCC(=O)N[C@@H](CO)C(=O)N[C@@](C)(Cc1ccccc1)C(=O)N[C@H](C(=O)N[C@@H](CO)C(=O)N[C@@H](CC(=O)O)C(=O)N[C@H](C(=O)N[C@@](C)(CO)C(=O)N[C@@H](CO)C(=O)N[C@@](C)(Cc1ccccc1)C(=O)N[C@@H](CC(C)C)C(=O)N[C@@H](CCC(=O)O)C(=O)NCC(=O)N[C@@H](CCC(=O)O)C(=O)N[C@@H](C)C(=O)N[C@@H](C)C(=O)N[C@@](C)(CCCCN)C(=O)N[C@@H](CCC(=O)O)C(=O)N[C@@](C)(Cc1ccccc1)C(=O)N[C@H](C(=O)N[C@@H](C)C(=O)N[C@@](C)(Cc1ccccc1)C(=O)N[C@H](C(=O)N[C@H](C(=O)N[C@@](C)(CCCCN)C(=O)NCC(=O)NCC(N)=O)C(C)C)C(C)C)[C@@H](C)CC)C(C)C)[C@@H](C)O)C(=O)O` [compound 97] (H-H[Aib]K([γGlu-Palmitoyl])GS[αMeF]TSDV[αMeS]S[αMeF]LEGEAA[αMeK]E[αMeF]IA[αMeF]VV[αMeK]GG-NH2; N-terminus assumed): the EC50 in experiment [1] (setting [4]), in experiment [1] (setting [5]), in experiment [2] (setting [6]), in experiment [2] (setting [7]), in experiment [3] (setting [8]) and in experiment [3] (setting [9]) was not below 28000 pM in each case. In addition, the EC50 in experiment [3] (setting [10]) is not below 27800 pM.
